# Results published in patent US12552763B2, “Methods of protecting against neurodegeneration” (BioVentures, LLC, priority 2017, dated 2026).
# Entries after “also recorded” stand apart in the source; their conditions may differ.
# How the values were obtained:
# [1] = system: C. elegans strain AM141 (Q40::YFP aggregates); assay: Q40::YFP aggregate foci in C. elegans strain AM141 (Huntington-like polyglutamine aggregation model); format: in vivo; settings: for reduction of aggregate count (aggregate foci): strain AM141, Q40::YFP in muscle, FIG. 3
# Description: C. elegans (AM141) adults were imaged at 7 days of adult age and quantified for intensity (FIG. 2A) and number (FIG. 2B) of Q40::YFP aggregates after 0, 1, 3, or 6 d of exposure to 50-nM PNR-5-02. Treated worms differ from untreated worms (“Days Tx”=0) by 2-tailed t test: *P<0.01; **P<1E-4.
# FIG. 3 depicts a graph showing reduction of protein aggregation in a C. elegans model of Huntington's disease or other neurodegenerative diseases featuring aggregates that contain polyglutamine tracts. Strain AM141, which expresses Q40::YFP in muscle, undergoes age-progressive accumulation of aggregate foci. PNR-5-02 analogues confer at least 30% reduction in formation of aggregate foci (****=P<0.00005 and *=P<0.01). PNR-5-18, PNR-4-44, PNR-5-58, and PNR-4-76 reduced aggregate count by ˜20%. PNR-5-02, PNR-4-87, PNR-5-56, and PNR-5-57 reduced aggregates ≥30%.
# (§1) Several panels of drugs were tested for their ability to protect against formation of protein aggregates in the following model systems: (i) a cell-culture model of Alzheimer-like protein aggregation (SH-SY5Y-APPSw, a human neuroblastoma cell line expressing the Swedish mutation of Amyloid Precursor Protein (APP), and thus predisposed to form β-amyloid aggregates; (ii) C. elegans strain CL4176, a model of Alzheimer-like amyloidopathy that can be induced to express human Aβ1-42 in muscle, and declines sharply in motility 24-42 hours after induction unless protected by effective drugs; (iii) C. elegans strain CL2355, a model of Alzheimer-like amyloidopathy that expresses human Aβ1-42 in all neurons after upshift induction (as in ii, above), and consequently loses its normal chemotactic responses; (iv) C. elegans strain NL5901, a model of Parkinson's disease that expresses α-synuclein::GFP in neurons, forming fluorescent aggregates with age; aggregates are scored by number and intensity of GFP foci, or scored for neuron loss with age by dye-filling; and (v) C. elegans strain AM141, a model of Huntington-like polyglutamine aggregation, which expresses Q40::YFP (a 40-glutamine tract fused in-frame to yellow fluorescent protein) in muscle cells and accumulates aggregates during aging.
# [2] = system: SH-SY5Y-APPSw cells; assay: Thioflavin-T amyloid staining in SH-SY5Y-APPSw neuroblastoma cells; format: cell-based, human; settings: for reduction of Thioflavin-fluorescence intensity: 48 hours drug treatment, amyloid fluorescence per nucleus, P<0.0001
# Description: FIG. 7 depicts a graph showing PNR-5-02 analogues reduce amyloid accumulation in human neuroblastoma cells overexpressing amyloid precursor protein (APPSw). SH-SY5Y-APPSw, human neuroblastoma cells overexpressing a mutant amyloid precursor protein (APPsw) associated with familial AD. Elevated APPSw leads to substantial formation of amyloid plaque, visualized by fluorescence microscopy after Thioflavin-T staining on day 3 of culture.
# as §1
# Human neuroblastoma cells (SH-SY5Y-APPsw), express the Swedish mutant of Amyloid Precursor Protein (APPsw) and therefore are predisposed to form amyloid aggregate. […] Amyloid fluorescence is then divided by the number of nuclei, to obtain relative amyloid content per cell.
# [3] = system: C. elegans strain CL2355; assay: C. elegans strain CL2355 amyloidopathy model (human Aβ1-42 in all neurons, chemotaxis); format: in vivo; settings: CL2355, loss of chemotactic responses
# Description: as §1
# [4] = system: BRI-Aβ42 mice; assay: Sarcosyl-insoluble protein aggregates in cerebral cortex of BRI-Aβ42 mice; format: in vivo
# Description: Total protein and sarcosyl-insoluble protein aggregates were prepared from cerebral cortex of […] mice, treated as in FIG. 4. Aliquots were separated on SDS-acrylamide gels and stained with Sypro Ruby (Molecular Probes). Gel lanes were scanned, and for each aggregate-protein lane the integral of intensity was normalized to the integral for total protein. *P<0.03 by 1-tailed heteroscedastic t test.
# Total protein and total sarcosyl-insoluble aggregates were isolated from cerebral cortex of BRI-Aβ42 mice, sacrificed after 10 daily IP injections with PNR-5-02 (as above) or vehicle. Protein aliquots were suspended in Laemmli buffer and resolved by SDS-acrylamide gel electrophoresis, and quantitated by protein-specific fluorescent staining. Results, presented in FIG. 5 as the percent of aggregate protein after normalization to total protein from the same sample, indicate an 18% reduction in aggregates for PNR-5-02-treated mice. Larger aggregates (at the top of each gel lane) were reduced >40%.
# [5] = system: C. elegans strain NL5901; assay: C. elegans strain NL5901 Parkinson's disease model (α-synuclein::GFP aggregates); format: in vivo; settings: NL5901, α-synuclein::GFP foci or neuron loss
# Description: as §1
# [6] = system: C. elegans; assay: C. elegans life span; format: in vivo
# Description: FIG. 8 depicts a graph showing that PNR-5-02 increase C. elegans life span. The effect of PNR-5-02 on C. elegans life span, at different concentrations both mean and maximum life span of the nematode life span is extended by 15%.
# Synchronized eggs (expected to hatch at approximately the same time) were placed on 60-mm nutrient-agar plates to which either vehicle (0.013% DMSO, v/v) for controls or PNR-5-02 (10 μM in 0.013% DMSO) was added. Worms were transferred to fresh plates daily for 7 days, and on alternate days thereafter, scoring worms as alive if they moved spontaneously or in response to gentle prodding. Worms lost for reasons other than natural death were censored (removed from mortality calculations) from that date. PNR-5-02 extended the nematode life span by 15% (FIG. 8).
# [7] = system: C. elegans strain CL4176; assay: C. elegans strain CL4176 amyloidopathy model (human Aβ1-42 in muscle, motility); format: in vivo; settings: CL4176, decline in motility 24-42 hours after induction
# Description: as §1
# [8] = cerebral cortex, 10 daily IP injections 5.7 μmole/kg
# [9] = at different concentrations, FIG. 8
smiles,measurement,setting,value
COc1cc(/C(C#N)=C/c2cc3ccccc3[nH]2)cc(OC)c1OC [PNR-4-44],reduction of aggregate count (aggregate foci),[1],~20%
COc1ccc(/C(C#N)=C/c2cc3ccccc3s2)cc1 [PNR-4-76],reduction of aggregate count (aggregate foci),[1],~20%
COc1ccc(/C(C#N)=C/c2c[nH]c3ccccc23)cc1OC [PNR-4-87],reduction of Thioflavin-fluorescence intensity,[2],34%
COc1cc(/C(C#N)=C\c2cc3ccccc3s2)cc(OC)c1OC [PNR-5-02],intensity and number of Q40::YFP aggregates,"[1]; AM141 adults imaged at 7 days of adult age, 1 d exposure to 50-nM vs 6 d exposure",as effective in reducing AM141 aggregates as 6-days exposure; also recorded: reduces Q40 aggregated in just 1 day
same,protection against formation of protein aggregates,"[1]; C. elegans AM141, Q40::YFP aggregates",protective
same,protection against formation of protein aggregates,[3],protective
same,protection against formation of protein aggregates,"[2]; SH-SY5Y-APPSw, β-amyloid aggregates",protective
same,protein aggregates in cerebral cortex (in words),"[4]; FIG. 5, P<0.03 by 1-tailed heteroscedastic t test",reduces protein aggregates
same,reduction in sarcosyl-insoluble aggregates normalized to total protein,[4]; [8],18%
same,reduction of larger aggregates (top of each gel lane),[4]; [8],> 40%
same,protection against formation of protein aggregates,[5],protective
same,life span extension,"[6]; 10 μM in 0.013% DMSO, from eggs",15%
same,maximum life span extension,[6]; [9],15%
same,mean life span extension,[6]; [9],15%
same,protection against formation of protein aggregates,[7],protective
COc1cc(/C(C#N)=C/c2coc3ccccc23)cc(OC)c1OC [PNR-5-18],reduction of aggregate count (aggregate foci),[1],~20%
COc1cc(OC)cc(/C(C#N)=C/c2nc3ccccc3s2)c1 [PNR-5-58],reduction of aggregate count (aggregate foci),[1],~20%
same,reduction of Thioflavin-fluorescence intensity,[2],54%
